This is an account of results in patent US20230382894A1, “CCR4 ANTAGONISTS” (CHEMOCENTRYX, INC., priority 2022, published 2023).

Usually IC50 stands for the concentration needed to halve the response being measured.

Experiment [1] has as its target T1, CCR4 (Homo sapiens, UniProt P51679).
T1 construct: CEM Cells Endogenous Express CCR4; endogenous in cells; host or cells: CEM cells
T1 sequence (P51679 1-360): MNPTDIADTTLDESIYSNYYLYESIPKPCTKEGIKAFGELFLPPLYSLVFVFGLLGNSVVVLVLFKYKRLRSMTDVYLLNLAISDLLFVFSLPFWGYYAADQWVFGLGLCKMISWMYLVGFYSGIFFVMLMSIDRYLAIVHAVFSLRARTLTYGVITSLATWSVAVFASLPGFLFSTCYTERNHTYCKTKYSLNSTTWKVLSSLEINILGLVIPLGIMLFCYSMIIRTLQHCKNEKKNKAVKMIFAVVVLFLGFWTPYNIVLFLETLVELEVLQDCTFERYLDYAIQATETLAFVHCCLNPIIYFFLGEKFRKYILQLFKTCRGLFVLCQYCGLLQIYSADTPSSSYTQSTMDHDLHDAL
The experiment in a line: CEM cell chemotaxis (migration) assay to CCL22 (MDC) in HBSS buffer with 0.1% BSA. Type of experiment: cell-based. Conditions: CEM cells in HBSS with 0.1% BSA; recombinant human CCL22 0.1 nM; 37° C. 60 minutes.

In experiment [2] the target is T1, CCR4. In words: CEM cell chemotaxis (migration) assay to CCL22 (MDC) in 100% Fetal Bovine Serum (FBS). Type of experiment: cell-based. Conditions: CEM cells in 100% FBS with 1% HEPEs; recombinant human CCL22 0.1 nM; 37° C. 60 minutes. The method in brief: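 Endogenously CCR4-expressing CEM cells in 100% FBS with 1% HEPES were preincubated with serially diluted compound (top final 10 μM) and allowed to migrate through 5 μm polycarbonate membranes toward 0.1 nM human CCL22 (EC50) for 60 min at 37 °C. Migrated cells were quantified by CyQUANT fluorescence.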

Structures are written as SMILES.

Consider `C[C@@H](Nc1nc(N2CCC(NC(=O)C3CCOCC3)CC2)ncc1Cl)c1ccc(Cl)cc1Cl` [Example 1.130], for which the IC50 at CCR4 [1] was 100 to 1000 nM; at CCR4 [2], greater than 1000 nM.
The matching figures for `C[C@@H](Nc1nc(N2CC[C@H](NC(=O)[C@H]3CCCN3)C2)ncc1Cl)c1ccc(Cl)cc1Cl` [Example 1.029]: less than 100 nM and less than 100 nM.
The matching figures for `C[C@H](Nc1nc(N2CCN(C(=O)[C@H]3CCC(=O)N3)CC2)ncc1Cl)c1ccc(Cl)cc1Cl` [Example 1.252]: greater than 1000 nM and greater than 1000 nM.
For `Cc1cnc(N2CCN(C(=O)[C@H]3CCCN3)CC2)nc1N[C@H](C)c1ccc(Cl)cc1Cl` [Example 1.071], the IC50 at CCR4 [1] and on CCR4 [2] was less than 100 nM in each case.
With `C[C@@H](Nc1nc(N2CCC(C(=O)N(C)CCN(C)C)CC2)ncc1Cl)c1ccc(Cl)cc1Cl` [Example 1.025], the half-inhibitory concentration (IC50) on CCR4 [1] and on CCR4 [2] was less than 100 nM each time.
In the case of `C[C@@H](Nc1nc(N2CCC(NC(=O)[C@H]3CCNC3)CC2)ncc1Cl)c1ccc(Cl)cc1Cl` [Example 1.061], the 50% inhibitory concentration (IC50) at CCR4 [1] and at CCR4 [2] was less than 100 nM in each case.
With `C[C@@H](Nc1nc(N2CCN(C(=O)[C@H]3C[C@H](O)CN3)CC2)ncc1Cl)c1ccc(Cl)cc1Cl` [Example 1.023], the concentration for half-maximal inhibition (IC50) on CCR4 [1] and at CCR4 [2] was less than 100 nM in each case.
With `C[C@@H](Nc1nc(N2CCN(C(=O)[C@H]3C[C@@H](O)CN3)CC2)ncc1Cl)c1ccc(Cl)cc1Cl` [Example 1.069], the IC50 at CCR4 [1] and on CCR4 [2] was less than 100 nM throughout.
Turning to `C[C@@H](Nc1nc(N2CCC(CO)(NC(=O)[C@H]3CCCN3)CC2)ncc1Cl)c1ccc(Cl)cc1Cl` [Example 1.003], the half-inhibitory concentration (IC50) at CCR4 [1] and on CCR4 [2] was less than 100 nM in each case.
For the compound `C[C@@H](Nc1nc(N2CCN(C(=O)[C@@H]3CCN(C)C3)CC2)ncc1Cl)c1ccc(Cl)cc1Cl` [Example 1.066], the IC50 on CCR4 [1] and on CCR4 [2] was less than 100 nM each time.
Take `C[C@@H](Nc1nc(N2CC3CC2CN3C(=O)[C@H]2CCCN2)ncc1Cl)c1ccc(Cl)cc1Cl` (stereo partly shown) [Example 1.031]: the IC50 at CCR4 [1] and on CCR4 [2] was 100 to 1000 nM throughout.
For `C[C@@H](Nc1nc(N2CCN(C(=O)C3(C)CNC3)CC2)ncc1Cl)c1ccc(Cl)cc1Cl` [Example 1.037], the IC50 at CCR4 [1] and on CCR4 [2] was 100 to 1000 nM throughout.
Regarding `CC(Nc1nc(N2CCN(C(=O)[C@H]3CCC(=O)N3)CC2)ncc1Cl)c1c(F)cc(Cl)cc1F` (stereo partly shown) [Example 1.076], the half-inhibitory concentration (IC50) on CCR4 [1] and on CCR4 [2] was less than 100 nM throughout.
Take `C[C@@H](Nc1nc(N2CCN(S(=O)(=O)CCN(C)C)CC2)ncc1Cl)c1ccc(Cl)cc1Cl` [Example 1.016]: the figures for the IC50 on CCR4 [1] and at CCR4 [2] were less than 100 nM and 100 to 1000 nM, respectively.
As for `C[C@@H](Nc1nc(N2CCN(C(=O)[C@H]3CCNC3)CC2)ncc1Cl)c1ccc(Cl)cc1Cl` [Example 1.150], the IC50 on CCR4 [1] and at CCR4 [2] was less than 100 nM throughout.
Regarding `C[C@@H](Nc1nc(N2CCC(C3CCCNC3)CC2)ncc1Cl)c1ccc(Cl)cc1Cl` (stereo partly shown) [Example 1.045], the IC50 on CCR4 [1] and on CCR4 [2] was less than 100 nM throughout.
Consider `C[C@@H](Nc1nc(N2CCC(NC(=O)[C@H]3CCN(C)C3)CC2)ncc1Cl)c1ccc(Cl)cc1Cl` [Example 1.060], for which the IC50 on CCR4 [1] and on CCR4 [2] was less than 100 nM each time.
As to `C[C@@H](Nc1nc(N2CCN(C(=O)CN(C)C)CC2)ncc1Cl)c1ccc(Cl)cc1Cl` [Example 1.041], the IC50 at CCR4 [1] and at CCR4 [2] was less than 100 nM throughout.
As for `CC(C)N(C(=O)C1CCNC1)C1CCN(c2ncc(Cl)c(N[C@H](C)c3ccc(Cl)cc3Cl)n2)CC1` (stereo partly shown) [Example 1.062], the IC50 at CCR4 [1] and on CCR4 [2] was greater than 1000 nM throughout.
With `C[C@@H](Nc1nc(N2CCN(C(=O)[C@H]3CCCN3)C(C)(C)C2)ncc1Cl)c1ccc(Cl)cc1Cl` [Example 1.030], the values for the IC50 on CCR4 [1] and at CCR4 [2] were greater than 1000 nM and 100 to 1000 nM, respectively.
